From ChEMBL document CHEMBL1132089, “Probing the role of interfacial residues in a dimerization inhibitor of HIV-1 protease” (Bioorg Med Chem Lett, 1999)
Where a SMILES comes first, the peptide text is derived from it. Bridges are numbered along the chain shown (N, C = ends). Roman numbers before positions name the chains, in order. The star is where a group is joined. C16 diacid = O=C(O)CCCCCCCCCCCCCCC(=O)*

molecular target: Human immunodeficiency virus type 1 protease (Human immunodeficiency virus 1) (UniProt Q72874); assay: Percent inhibition of HIV-1 protease at a concentration level of 25 nM relative to compound I was determined by UV absorbance

Compound | inhibition [%]
CC[C@H](C)[C@H](NC(=O)[C@H](C)NC(=O)[C@@H]1CCCN1C(=O)CCCCCCCCCCCCCCC(=O)N[C@@H](CO)C(=O)N[C@H](C(=O)N[C@@H](CC(C)C)C(=O)N[C@@H](CC(N)=O)C(=O)N[C@@H](Cc1ccccc1)C(=O)O)[C@@H](C)O)C(=O)N[C@H](C(=O)N[C@@H](CC(C)C)C(=O)N[C@@H](Cc1c[nH]c2ccccc12)C(=O)O)[C@@H](C)O (I: PAITLW-OH / II: STLNF-OH; linker I:N-II:N via C16 diacid) | 0.8
CC[C@H](C)[C@H](NC(=O)[C@H](CCC(N)=O)NC(=O)[C@@H]1CCCN1C(=O)CCCCCCCCCCCCCCC(=O)N[C@@H](CO)C(=O)N[C@H](C(=O)N[C@@H](CC(C)C)C(=O)N[C@@H](CC(N)=O)C(=O)N[C@@H](Cc1ccccc1)C(=O)O)[C@@H](C)O)C(=O)N[C@@H](C)C(=O)N[C@@H](CC(C)C)C(=O)N[C@@H](Cc1c[nH]c2ccccc12)C(=O)O (I: PQIALW-OH / II: STLNF-OH; linker I:N-II:N via C16 diacid) | 3.3
CC[C@H](C)[C@H](NC(=O)[C@H](CCC(N)=O)NC(=O)[C@@H]1CCCN1C(=O)CCCCCCCCCCCCCCC(=O)N[C@@H](C)C(=O)N[C@H](C(=O)N[C@@H](CC(C)C)C(=O)N[C@@H](CC(N)=O)C(=O)N[C@@H](Cc1ccccc1)C(=O)O)[C@H](C)O)C(=O)N[C@H](C(=O)N[C@@H](CC(C)C)C(=O)N[C@@H](Cc1c[nH]c2ccccc12)C(=O)O)[C@@H](C)O | 1.1
CC[C@H](C)[C@H](NC(=O)[C@H](CCC(N)=O)NC(=O)[C@@H]1CCCN1C(=O)CCCCCCCCCCCCCCC(=O)N[C@@H](CO)C(=O)N[C@H](C(=O)N[C@@H](CC(C)C)C(=O)N[C@@H](C)C(=O)N[C@@H](Cc1ccccc1)C(=O)O)[C@H](C)O)C(=O)N[C@H](C(=O)N[C@@H](CC(C)C)C(=O)N[C@@H](Cc1c[nH]c2ccccc12)C(=O)O)[C@@H](C)O | 1.9
CC[C@H](C)[C@H](NC(=O)[C@H](CCC(N)=O)NC(=O)[C@@H]1CCCN1C(=O)CCCCCCCCCCCCCCC(=O)N[C@@H](CO)C(=O)N[C@H](C(=O)N[C@@H](CC(C)C)C(=O)N[C@@H](CC(N)=O)C(=O)N[C@@H](Cc1ccccc1)C(=O)O)[C@@H](C)O)C(=O)N[C@H](C(=O)N[C@@H](CC(C)C)C(=O)N[C@@H](C)C(=O)O)[C@@H](C)O (I: PQITLA-OH / II: STLNF-OH; linker I:N-II:N via C16 diacid) | 26
CC[C@H](C)[C@H](NC(=O)[C@H](CCC(N)=O)NC(=O)[C@@H]1CCCN1C(=O)CCCCCCCCCCCCCCC(=O)N[C@@H](CO)C(=O)N[C@H](C(=O)N[C@@H](CC(C)C)C(=O)N[C@@H](CC(N)=O)C(=O)N[C@@H](C)C(=O)O)[C@H](C)O)C(=O)N[C@H](C(=O)N[C@@H](CC(C)C)C(=O)N[C@@H](Cc1c[nH]c2ccccc12)C(=O)O)[C@@H](C)O | 3.5
CC[C@H](C)[C@H](NC(=O)[C@H](CCC(N)=O)NC(=O)[C@@H]1CCCN1C(=O)CCCCCCCCCCCCCCC(=O)N[C@@H](CO)C(=O)N[C@@H](C)C(=O)N[C@@H](CC(C)C)C(=O)N[C@@H](CC(N)=O)C(=O)N[C@@H](Cc1ccccc1)C(=O)O)C(=O)N[C@H](C(=O)N[C@@H](CC(C)C)C(=O)N[C@@H](Cc1c[nH]c2ccccc12)C(=O)O)[C@@H](C)O (I: PQITLW-OH / II: SALNF-OH; linker I:N-II:N via C16 diacid) | 3.3
CC[C@H](C)[C@H](NC(=O)[C@H](CCC(N)=O)NC(=O)[C@@H]1CCCN1C(=O)CCCCCCCCCCCCCCC(=O)N[C@@H](CO)C(=O)N[C@H](C(=O)N[C@@H](C)C(=O)N[C@@H](CC(N)=O)C(=O)N[C@@H](Cc1ccccc1)C(=O)O)[C@H](C)O)C(=O)N[C@H](C(=O)N[C@@H](CC(C)C)C(=O)N[C@@H](Cc1c[nH]c2ccccc12)C(=O)O)[C@@H](C)O | 4.5
CC[C@H](C)[C@H](NC(=O)[C@H](CCC(N)=O)NC(=O)[C@@H]1CCCN1C(=O)CCCCCCCCCCCCCCC(=O)N[C@@H](CO)C(=O)N[C@H](C(=O)N[C@@H](CC(C)C)C(=O)N[C@@H](CC(N)=O)C(=O)N[C@@H](Cc1ccccc1)C(=O)O)[C@H](C)O)C(=O)N[C@H](C(=O)N[C@@H](C)C(=O)N[C@@H](Cc1c[nH]c2ccccc12)C(=O)O)[C@@H](C)O | 1.6
CC(C)C[C@H](NC(=O)[C@@H](NC(=O)[C@H](CO)NC(=O)CCCCCCCCCCCCCCC(=O)N1CCC[C@H]1C(=O)N[C@@H](CCC(N)=O)C(=O)N[C@@H](C)C(=O)N[C@H](C(=O)N[C@@H](CC(C)C)C(=O)N[C@@H](Cc1c[nH]c2ccccc12)C(=O)O)[C@@H](C)O)[C@H](C)O)C(=O)N[C@@H](CC(N)=O)C(=O)N[C@@H](Cc1ccccc1)C(=O)O | 2.7
